Reference: patent US10329243B2, “Biphenyl derivative and uses thereof” (XI'AN LIBANG PHARMACEUTICAL CO., LTD, priority 2015, dated 2019)

How the values were obtained:
Format in all cases: in vivo, SD rats
TNF-α [1] = assay: Determination of TNF-α in brain tissue homogenate, permanent cerebral ischemia model
Description: (§1) Rats were intraperitoneally injected with 10% chloral hydrate 350 mg/kg after anesthesia and opened up at the center of the neck in accordance with the Zea Longa modified method. The right common carotid artery was separated, and the right external carotid artery branches was ligated. A small opening was made at the distal end of the external carotid artery, and a previously prepared thread was inserted through the common carotid artery and the external carotid artery bifurcation into the internal carotid artery, till the anterior end of the middle cerebral artery, with an immersed depth of 18 to 19 mm. The thread was then secured, and the wound was sutured layer by layer. After the operation, the rats were placed in a clean incubator to wake up. […] The sham operation group, the permanent cerebral ischemia model group, and the Example groups were prepared strictly according to the requirements of the cerebral ischemic reperfusion model, while in the sham operation group the thread was put only into the external carotid artery. The animals were allowed to eat and drink freely after waking up. The sham operation group, the permanent cerebral ischemia model group, and the Example groups were administered intravenously the aqueous solution of the biphenyl derivatives in PEG400 at 40 mg/kg (40 mg/kg means that 40 mg of the test compound per kg of the body weight of rats) 30 min before insertion of thread and 12 h after embolism, respectively. The sham operation group and the permanent cerebral ischemia model group were injected with the same amount of blank PEG400 aqueous solution at the same time point.
(§2) 24 hours after the embolism, 8 rats in each group were sacrificed by decapitation, the brain was removed, rinsed with PBS (pH 7.4) at −20°i for 20 min, evenly sliced (with a thickness of 2 mm), stained in a 2% TTC solution at 37°% in the dark for 30 min, fixed in 10% formalin for 24 h, and photographs were taken to analyze the infarct volume. A mixture of femoral arterial and venous blood was drawn from another 8 rats in each group under anesthesia, placed in a low temperature centrifuge at 4° C., centrifuged at 3500 r/min for 20 min, and the supernatant was stored in a refrigerator at −20° C. ready for SOD and MDA detection. After the blood was drawn, a perfusion needle was insert through the apex to the ascending aorta, and saline at 4° C. was rapid infused until the effluent became clear, followed by 4% paraformaldehyde phosphate buffer perfusion for fixation; the brain was removed by craniotomy, and brain tissues 2 mm in front of and behind the optic chiasma were taken and fixed, dehydrated, rendered transparent, impregnated in wax, and embedded. Brain continuous coronary tissue pathological sections were consecutively cut for later use. The remaining 8 rats in each group were sacrificed, brains were removed, the ischemic brain hemispheres were immediately taken on an ice tray, and 10% brain tissue homogenate was prepared for the detection of IL-1β and TNF-α.
(§3) Brain tissue homogenate was hypothermally centrifuged at 3000 rpm for 15 min, the supernatant was taken, and IL-1β and TNF-α were determined in strict accordance with instructions of the kits.

[2] = system: rats with cerebral ischemic reperfusion injury; assay: Relative infarct volume (TTC, imageJ), cerebral ischemic reperfusion MCAO model
Description: as §1, with “group, the ischemic reperfusion group, and” for “group, the permanent cerebral ischemia model group, and”, “waking up. After 2 h, the thread was pulled out to achieve reperfusion. The sham” for “waking up. The sham”, “min before reperfusion and 12” for “min before insertion of thread and 12”, “h after reperfusion, respectively. The” for “h after embolism, respectively. The”, “and the ischemic reperfusion group were” for “and the permanent cerebral ischemia model group were”
as §2, with “reperfusion,” for “the embolism,”, “−20° i” for “−20°i”
The infarct area in each brain section was analyzed and quantified by the imageJ image software, and the ratio of cerebral infarction volume in the overall brain volume was calculated.

IL-1β [3] = assay: Determination of IL-1β in brain tissue homogenate, permanent cerebral ischemia model
Description: as §1, §2, §3

SOD [4] = assay: SOD determination, cerebral ischemic reperfusion MCAO model
Description: as §1, with “group, the ischemic reperfusion group, and” for “group, the permanent cerebral ischemia model group, and”, “waking up. After 2 h, the thread was pulled out to achieve reperfusion. The sham” for “waking up. The sham”, “min before reperfusion and 12” for “min before insertion of thread and 12”, “h after reperfusion, respectively. The” for “h after embolism, respectively. The”, “and the ischemic reperfusion group were” for “and the permanent cerebral ischemia model group were”
as §2, with “reperfusion,” for “the embolism,”, “−20° i” for “−20°i”
(§4) SOD and MDA were determined strictly in accordance with instructions of the kit.

SOD [5] = assay: SOD determination, permanent cerebral ischemia model
Description: as §1, §2, §4

TNF-α [6] = assay: Determination of TNF-α in brain tissue homogenate, cerebral ischemic reperfusion MCAO model
Description: as §1, with “group, the ischemic reperfusion group, and” for “group, the permanent cerebral ischemia model group, and”, “waking up. After 2 h, the thread was pulled out to achieve reperfusion. The sham” for “waking up. The sham”, “min before reperfusion and 12” for “min before insertion of thread and 12”, “h after reperfusion, respectively. The” for “h after embolism, respectively. The”, “and the ischemic reperfusion group were” for “and the permanent cerebral ischemia model group were”
as §2, with “reperfusion,” for “the embolism,”, “−20° i” for “−20°i”
as §3

IL-1β [7] = assay: Determination of IL-1β in brain tissue homogenate, cerebral ischemic reperfusion MCAO model
Description: as §1, with “group, the ischemic reperfusion group, and” for “group, the permanent cerebral ischemia model group, and”, “waking up. After 2 h, the thread was pulled out to achieve reperfusion. The sham” for “waking up. The sham”, “min before reperfusion and 12” for “min before insertion of thread and 12”, “h after reperfusion, respectively. The” for “h after embolism, respectively. The”, “and the ischemic reperfusion group were” for “and the permanent cerebral ischemia model group were”
as §2, with “reperfusion,” for “the embolism,”, “−20° i” for “−20°i”
as §3

[8] = permanent cerebral ischemia model rats, edaravone 3 mg/kg
[9] = ischemic reperfusion rat model, edaravone 3 mg/kg
[10] = permanent cerebral ischemia model rats, 40 mg/kg intravenously, 10% brain tissue homogenate, 24 h after the embolism, 40 mg/kg
[11] = ischemic reperfusion MCAO rats, 40 mg/kg intravenously, 10% brain tissue homogenate, 24 h after reperfusion, 40 mg/kg
[12] = permanent cerebral ischemia model rats, 40 mg/kg intravenously, 10% brain tissue homogenate, 24 h after the embolism
[13] = ischemic reperfusion MCAO rats, 40 mg/kg intravenously 30 min before and 12 h after reperfusion, 24 h after reperfusion
[14] = ischemic reperfusion MCAO rats, 40 mg/kg intravenously 30 min before and 12 h after reperfusion, serum, 24 h after reperfusion
[15] = permanent cerebral ischemia model rats, 40 mg/kg intravenously, serum, 24 h after the embolism
[16] = ischemic reperfusion MCAO rats, 40 mg/kg intravenously, 10% brain tissue homogenate, 24 h after reperfusion

Compound	TNF-α content (TNF-α [1]; [12])	Relative Brain infarction volume (%) [2, 13]	IL-1β content (IL-1β [3]; [12])	SOD ACTIVITY (U/mL) (SOD [4]; [14])	SOD ACTIVITY (U/mL) (SOD [5]; [15])	TNF-α content (TNF-α [6]; [16])	IL-1β content (IL-1β [7]; [16])	also measured
3,3′,5,5′-tetraisopropylbiphenyl-4,4′-bis(oxymethylene phosphate) [Example 3 group]								TNF-α content (TNF-α [1]; rat, in vivo, iv, 40 mg/kg): 4.45 ± 0.91 ng/mL; Relative Brain infarction volume (%) ([2]; rat, in vivo, iv, 40 mg/kg): 25.41 ± 3.59 %; IL-1β content (IL-1β [3]; rat, in vivo, iv, 40 mg/kg): 0.67 ± 0.08 ng/mL; SOD ACTIVITY (U/mL) (SOD [4]; rat, in vivo, iv, 40 mg/kg): 93.15 ± 3.05 U/mL; SOD ACTIVITY (U/mL) (SOD [5]; rat, in vivo, iv, 40 mg/kg): 93.61 ± 2.13 U/mL; TNF-α content (TNF-α [6]; rat, in vivo, iv, 40 mg/kg): 4.26 ± 0.54 ng/mL; IL-1β content (IL-1β [7]; rat, in vivo, iv, 40 mg/kg): 0.66 ± 0.05 ng/mL
CC1=NN(c2ccccc2)C(=O)C1 [Edaravone injection, edaravone, reference compound]								TNF-α content (TNF-α [1]; [8]): 5.53 ± 0.54 ng/mL; Relative Brain infarction volume (%) [2, 9]: 29.31 ± 3.95 %; IL-1β content (IL-1β [3]; [8]): 0.76 ± 0.04 ng/mL; SOD ACTIVITY (U/mL) (SOD [4]; [9]): 88.16 ± 3.99 U/mL; SOD ACTIVITY (U/mL) (SOD [5]; [8]): 90.62 ± 3.81 U/mL; TNF-α content (TNF-α [6]; [9]): 5.14 ± 0.44 ng/mL; IL-1β content (IL-1β [7]; [9]): 0.75 ± 0.05 ng/mL
CC(=O)Oc1c(C(C)C)cc(-c2cc(C(C)C)c(O)c(C(C)C)c2)cc1C(C)C [Example 1 group, 4′-hydroxy-3,3′,5,5′-tetraisopropylbiphenyl-4-acetate]								TNF-α content (TNF-α [1]; [10]): 4.25 ± 0.66 ng/mL; Relative Brain infarction volume (%) ([2]; ischemic reperfusion MCAO rats, 40 mg/kg intravenously 30 min before and 12 h after reperfusion, 24 h after reperfusion, 40 mg/kg): 18.71 ± 4.69 %; IL-1β content (IL-1β [3]; [10]): 0.64 ± 0.09 ng/mL; SOD ACTIVITY (U/mL) (SOD [4]; ischemic reperfusion MCAO rats, 40 mg/kg intravenously 30 min before and 12 h after reperfusion, serum, 24 h after reperfusion, 40 mg/kg): 96.78 ± 2.94 U/mL; SOD ACTIVITY (U/mL) (SOD [5]; permanent cerebral ischemia model rats, 40 mg/kg intravenously, serum, 24 h after the embolism, 40 mg/kg): 97.36 ± 4.51 U/mL; TNF-α content (TNF-α [6]; [11]): 4.11 ± 0.72 ng/mL; IL-1β content (IL-1β [7]; [11]): 0.63 ± 0.12 ng/mL
CC(=O)Oc1c(C(C)C)cc(-c2cc(C(C)C)c(OC(C)=O)c(C(C)C)c2)cc1C(C)C [Example 2 group, 3,3′,5,5′-tetraisopropylbiphenyl-4′-diacetate]	5.15 ± 0.88 ng/mL	23.22 ± 3.12 %	0.78 ± 0.12 ng/mL	94.46 ± 2.19 U/mL	93.28 ± 3.49 U/mL	5.03 ± 0.59 ng/mL	0.79 ± 0.11 ng/mL	
CC(C)c1cc(-c2cc(C(C)C)c(OC(=O)CCC(=O)O)c(C(C)C)c2)cc(C(C)C)c1O [Example 5 group, [4-(4′-hydroxy-3,3′,5,5′-tetraisopropylbiphenyl)oxy]-4-carbonyl butyric acid]	5.23 ± 0.48 ng/mL	23.55 ± 5.67 %	0.72 ± 0.11 ng/mL	95.01 ± 3.22 U/mL	95.31 ± 4.11 U/mL	5.01 ± 0.59 ng/mL	0.74 ± 0.09 ng/mL	
CCCc1cc(-c2cc(CCC)c(O)c(C(C)C)c2)cc(C(C)C)c1O [Example 6 group, 4,4′-dihydroxy-3,3′-diisopropyl-5,5′-dipropylbiphenyl]	4.99 ± 0.53 ng/mL	19.35 ± 4.02 %	0.55 ± 0.05 ng/mL	96.89 ± 3.49 U/mL	97.21 ± 4.36 U/mL	4.16 ± 0.44 ng/mL	0.64 ± 0.03 ng/mL	
CCCc1cc(-c2cc(CCC)c(O)c(CCC)c2)cc(CCC)c1O [Example 7 group, 4,4′-dihydroxy-3,3′,5,5′-tetrapropylbiphenyl]	4.26 ± 0.40 ng/mL	19.29 ± 3.54 %	0.57 ± 0.08 ng/mL	94.51 ± 2.19 U/mL	98.28 ± 3.18 U/mL	4.32 ± 0.61 ng/mL	0.63 ± 0.08 ng/mL	
CC(C)c1cc(-c2cc(C(C)C)c(C(=O)O)c(C(C)C)c2)cc(C(C)C)c1O [Example 8 group, 4′-hydroxy-3,3′,5,5′-tetraisopropylbiphenyl-4-carboxylic acid]	4.39 ± 0.73 ng/mL	25.83 ± 2.38 %	0.65 ± 0.08 ng/mL	96.09 ± 3.33 U/mL	96.90 ± 3.69 U/mL	4.35 ± 0.46 ng/mL	0.64 ± 0.14 ng/mL	
CC(C)c1cc(-c2cc(C(C)C)c(Cl)c(C(C)C)c2)cc(C(C)C)c1O [Example 9 group, 4-chloro-4′-hydroxy-3,3′,5,5′-tetraisopropylbiphenyl]								TNF-α content (TNF-α [1]; rat, in vivo, iv, 40 mg/kg): 5.17 ± 0.40 ng/mL; Relative Brain infarction volume (%) ([2]; rat, in vivo, iv, 40 mg/kg): 24.74 ± 6.13 %; IL-1β content (IL-1β [3]; rat, in vivo, iv, 40 mg/kg): 0.62 ± 0.12 ng/mL; SOD ACTIVITY (U/mL) (SOD [4]; rat, in vivo, iv, 40 mg/kg): 92.26 ± 2.96 U/mL; SOD ACTIVITY (U/mL) (SOD [5]; rat, in vivo, iv, 40 mg/kg): 93.62 ± 2.73 U/mL; TNF-α content (TNF-α [6]; rat, in vivo, iv, 40 mg/kg): 5.02 ± 0.39 ng/mL; IL-1β content (IL-1β [7]; rat, in vivo, iv, 40 mg/kg): 0.63 ± 0.07 ng/mL
